Experimental data reported in PubChem BioAssay AID2060892 (Molecular Pharmacology Branch, DTP, NCI, 2025).

Tested on: HOP-62 complex spheroids with HUVEC/MSC, viability
Experiment: Anticancer human tumor HOP-62 cell line growth inhibition [RAS];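 further: spheroids exposed to agents for seven days before readout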;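 on viability, T/C: 100% = DMSO vehicle control viability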
Details: for IC50: curve of first compound; for viability, T/C: stronger effect = lower value; active means viability on the fitted dose curve at most 10% of control; inactive means the rest
How it was run: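 Tumour cells grown as complex spheroids with HUVEC endothelial cells and mesenchymal stem cells, treated with RAS pathway inhibitor combinations. Each agent spans half-log steps from near clinical Cmax, or 10 microM where Cmax is unknown.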

[1] = second compound 0.00316 µM, first compound 0.0316 µM
[2] = second compound 0.00316 µM, first compound 0.1 µM
[3] = second compound 0.00316 µM, first compound 0.316 µM
[4] = second compound 0.00316 µM, first compound 1 µM
[5] = second compound 0.00316 µM, first compound 3.16 µM
[6] = second compound 0.00316 µM, first compound 10 µM
[7] = second compound 0.01 µM, first compound 0.0316 µM
[8] = second compound 0.01 µM, first compound 0.1 µM
[9] = second compound 0.01 µM, first compound 0.316 µM
[10] = second compound 0.01 µM, first compound 1 µM
[11] = second compound 0.01 µM, first compound 3.16 µM
[12] = second compound 0.01 µM, first compound 10 µM
[13] = second compound 0.0316 µM, first compound 0.0316 µM
[14] = second compound 0.0316 µM, first compound 0.1 µM
[15] = second compound 0.0316 µM, first compound 0.316 µM
[16] = second compound 0.0316 µM, first compound 1 µM
[17] = second compound 0.0316 µM, first compound 3.16 µM
[18] = second compound 0.0316 µM, first compound 10 µM
[19] = second compound 0.1 µM, first compound 0.0316 µM
[20] = second compound 0.1 µM, first compound 0.1 µM
[21] = second compound 0.1 µM, first compound 0.316 µM
[22] = second compound 0.1 µM, first compound 1 µM
[23] = second compound 0.1 µM, first compound 3.16 µM
[24] = second compound 0.1 µM, first compound 10 µM
[25] = second compound 0.316 µM, first compound 0.0316 µM
[26] = second compound 0.316 µM, first compound 0.1 µM
[27] = second compound 0.316 µM, first compound 0.316 µM
[28] = second compound 0.316 µM, first compound 1 µM
[29] = second compound 0.316 µM, first compound 3.16 µM
[30] = second compound 0.316 µM, first compound 10 µM
[31] = second compound 1 µM, first compound 0.0316 µM
[32] = second compound 1 µM, first compound 0.1 µM
[33] = second compound 1 µM, first compound 0.316 µM
[34] = second compound 1 µM, first compound 1 µM
[35] = second compound 1 µM, first compound 3.16 µM
[36] = second compound 1 µM, first compound 10 µM

CC1(O)CCCC1n1c(=O)c(C(F)F)cc2cnc(NC3CCN(S(C)(=O)=O)CC3)nc21 (stereo unspecified) + C=CC(=O)N1CCN(c2nc(OCC3CCCN3C)nc3c(F)c(-c4nc(N)cc(C)c4C(F)(F)F)c(Cl)cc23)C(C)C1
0.0812 µM: IC50 (second compound 0.1 µM)
inactive: viability, T/C [1] 64% | viability, T/C [2] 47.8% | viability, T/C [3] 38.4% | viability, T/C [4] 35.6% | viability, T/C [5] 32.3% | viability, T/C [7] 66.3% | viability, T/C [8] 43.9% | viability, T/C [9] 28.7% | viability, T/C [10] 34% | viability, T/C [11] 27.7% | viability, T/C [13] 55.5% | viability, T/C [14] 39.8% | viability, T/C [15] 29.9% | viability, T/C [16] 28.3% | viability, T/C [17] 22.9% | viability, T/C [19] 66.5% | viability, T/C [20] 40% | viability, T/C [21] 30.1% | viability, T/C [22] 30% | viability, T/C [23] 29.5% | viability, T/C [25] 53.6% | viability, T/C [26] 37.6% | viability, T/C [27] 30.6% | viability, T/C [28] 32.6% | viability, T/C [29] 21.9% | viability, T/C [31] 59.4% | viability, T/C [32] 39.4% | viability, T/C [33] 29.9% | viability, T/C [34] 27.2% | viability, T/C [35] 25.7%
0.14 µM: IC50 (second compound 0.00316 µM)
0.0948 µM: IC50 (second compound 0.01 µM)
0.0557 µM: IC50 (second compound 1 µM)
active: viability, T/C [6] 1.76% | viability, T/C [12] 0.91% | viability, T/C [18] 0.75% | viability, T/C [24] 0.8% | viability, T/C [30] 0.96% | viability, T/C [36] 1.08%
< 0.0316 µM: IC50 (second compound 0.316 µM)
0.0403 µM: IC50 (second compound 0.0316 µM)

CCC(CC)c1cc(NC2CCC(N)C2)n2nccc2n1 (stereo unspecified) + C=CC(=O)N1CCN(c2nc(OCC3CCCN3C)nc3c(F)c(-c4nc(N)cc(C)c4C(F)(F)F)c(Cl)cc23)C(C)C1
1.45 µM: IC50 (second compound 0.0316 µM)
1.38 µM: IC50 (second compound 1 µM)
active: viability, T/C [5] 2.08% | viability, T/C [6] 1.07% | viability, T/C [11] 1.41% | viability, T/C [12] 0.46% | viability, T/C [17] 0.98% | viability, T/C [18] 0.34% | viability, T/C [23] 2.62% | viability, T/C [24] 0.16% | viability, T/C [29] 0.89% | viability, T/C [30] 0.5% | viability, T/C [35] 1.28% | viability, T/C [36] 0.62%
1.43 µM: IC50 (second compound 0.00316 µM) | IC50 (second compound 0.1 µM)
1.32 µM: IC50 (second compound 0.01 µM)
inactive: viability, T/C [1] 82.5% | viability, T/C [2] 79.4% | viability, T/C [3] 88.6% | viability, T/C [4] 71.8% | viability, T/C [7] 77.7% | viability, T/C [8] 69.6% | viability, T/C [9] 70.3% | viability, T/C [10] 65.5% | viability, T/C [13] 75.2% | viability, T/C [14] 68.4% | viability, T/C [15] 76.5% | viability, T/C [16] 73.2% | viability, T/C [19] 66.2% | viability, T/C [20] 70.5% | viability, T/C [21] 74.6% | viability, T/C [22] 73.5% | viability, T/C [25] 70.7% | viability, T/C [26] 68.9% | viability, T/C [27] 71.4% | viability, T/C [28] 68.2% | viability, T/C [31] 62.5% | viability, T/C [32] 69.9% | viability, T/C [33] 70.9% | viability, T/C [34] 73.4%
1.36 µM: IC50 (second compound 0.316 µM)

CCN1CCN(Cc2ccc(Nc3ncc(F)c(-c4cc(F)c5nc(C)n(C(C)C)c5c4)n3)nc2)CC1 + C=CC(=O)N1CCN(c2nc(OCC3CCCN3C)nc3c(F)c(-c4nc(N)cc(C)c4C(F)(F)F)c(Cl)cc23)C(C)C1
> 1 µM: IC50 (second compound 0.00316 µM) | IC50 (second compound 0.01 µM) | IC50 (second compound 0.1 µM) | IC50 (second compound 1 µM)
0.11 µM: IC50 (second compound 0.0316 µM)
inactive: viability, T/C (second compound 0.00316 µM, first compound 0.00316 µM) 87.7% | viability, T/C (second compound 0.00316 µM, first compound 0.01 µM) 84.1% | viability, T/C [1] 69.2% | viability, T/C [2] 73% | viability, T/C [3] 64.8% | viability, T/C [4] 55.5% | viability, T/C (second compound 0.01 µM, first compound 0.00316 µM) 71.5% | viability, T/C (second compound 0.01 µM, first compound 0.01 µM) 64.3% | viability, T/C [7] 62.5% | viability, T/C [8] 55.9% | viability, T/C [9] 57.3% | viability, T/C [10] 48.8% | viability, T/C (second compound 0.0316 µM, first compound 0.00316 µM) 72.2% | viability, T/C (second compound 0.0316 µM, first compound 0.01 µM) 74.3% | viability, T/C [13] 59% | viability, T/C [14] 52.8% | viability, T/C [15] 47.6% | viability, T/C [16] 46.9% | viability, T/C (second compound 0.1 µM, first compound 0.00316 µM) 69.7% | viability, T/C (second compound 0.1 µM, first compound 0.01 µM) 57.6% | viability, T/C [19] 59.9% | viability, T/C [20] 51.3% | viability, T/C [21] 68.2% | viability, T/C [22] 45.2% | viability, T/C (second compound 0.316 µM, first compound 0.00316 µM) 69% | viability, T/C (second compound 0.316 µM, first compound 0.01 µM) 70.6% | viability, T/C [25] 68.8% | viability, T/C [26] 50.2% | viability, T/C [27] 58% | viability, T/C [28] 46.8% | viability, T/C (second compound 1 µM, first compound 0.00316 µM) 66.7% | viability, T/C (second compound 1 µM, first compound 0.01 µM) 58.6% | viability, T/C [31] 50.6% | viability, T/C [32] 59.9% | viability, T/C [33] 54.7% | viability, T/C [34] 47.1%
0.613 µM: IC50 (second compound 0.316 µM)
